Test results: US6444850B1, “Fungicidial compounds having a fluorovinyloxphyenyl moiety and process for the preparation thereof” (priority 1997, dated 2002)

Experiments:
[1] = tested on: Phytophthora infestans; format: in vivo; conditions: 50 ppm; control value, tomato late blight
[2] = tested on: Pyricularia oryzae Carvara KA301; format: in vivo; conditions: for C. V. (%) RCB: 50 ppm, control value, rice blast; for C. V. (%) Fungicidal Activities against RCB at 10 ppm / C. V. (%) Fungicidal Activities against RCB at 10 ppm (TABLE 6): sprayed on Nakdong rice plant, control value from lesion area
[3] = tested on: Rhizoctonia solani AG-1; test: Fungicidal activity against rice sheath blight (RSB) disease; conditions: 50 ppm, control value
[4] = tested on: Puccinia recondita; test: Fungicidal activity against wheat leaf rust (WLR) disease; format: in vivo; conditions: for C. V. (%), Fungicidal Activities against WLB at 10 ppm: Table 8 (Test Example 5); for C. V. (%) WLR: 50 ppm, control value, wheat leaf rust
[5] = tested on: Botrytis cinerae; test: Fungicidal activity against cucumber gray mold rot (CGM) disease; format: in vivo; conditions: 50 ppm, control value
Method: Botrytis cinerae, which was isolated from cucumber infected thereby, was inoculated on a PDA agar medium and cultured under a 12L/12D cycle at 25° C. for 15 days to form spore. The spores were scraped, filtered through a gauze and then suspended in potato dextrose liquid medium at a concentration of 1×10^6 spore/ml. The spore suspension was sprayed on a cucumber plant having one leaf. The cucumber plant was held in a humidified room at 20° C. for 3 days. L.A. on a leaf was measured to calculate an C.V.

[6] = tested on: Erysiphae graminis; test: Fungicidal activity against barley powdery mildew (BPM) disease; format: in vivo; conditions: for C. V. (%), Fungicidal activities against TLB at 10 ppm: Table 9 (Test Example 6); for C. V. (%) BPM: 50 ppm, control value, barley powdery mildew
Method: Erysiphae graminis was subcultured on a wheat plant in a laboratory. 15 g of barley seeds was sowed in a pot (diameter 6.5 cm) and cultured in a greenhouse for 7 days to obtain a barley plant having only a primary leaf. The barley plant was inoculated with spores by shaking thereover another plant infected by BPM. The inoculated barley plant was cultured in an incubator maintained at a temperature of 22 to 24° C. and a relative humidity of 50% for 7 days to induce BPM. L.A. on the leaf was measured to calculate an C.V.

Row | Structure (SMILES) | C. V. (%) TLB [1] [%] | C. V. (%) RCB [2] [%] | C. V. (%) RSB [3] [%] | C. V. (%), Fungicidal Activities against WLB at 10 ppm [4] [%] | C. V. (%) WLR [4] [%] | C. V. (%) CGM [5] [%] | C. V. (%), Fungicidal activities against TLB at 10 ppm [6] [%] | C. V. (%) BPM [6] [%] | C. V. (%) Fungicidal Activities against RCB at 10 ppm [2] [%] | C. V. (%) Fungicidal Activities against RCB at 10 ppm (TABLE 6) [2] [%]
1 | CO/C=C(/C(=O)OC)c1ccccc1COc1cccc(OC(F)=Cc2ccccc2)c1 [Compound 1, methyl (2E)-3-methoxy-2-{2′-{3″-(2′″-fluorostyryl)-2′″-oxy}phenoxymethyl}phenyl-2-propenoate] | 70 | 97 | 95 | 96 | 100 | 62 | 100 | 100 |  | 
2 | CNC(=O)/C(=C/OC)c1ccccc1COc1cccc(OC(F)=Cc2ccccc2)c1 [Compound 2, (2E)-N-methyl-3-methoxy-2-{2′-{3″-(2′″-fluorostyryl)-2′″-oxy}phenoxymethyl}phenyl-2-propenamide] | 74 | 100 | 50 |  | 96 | 84 |  | 86 |  | 
3 | CON=C(C(=O)OC)c1ccccc1COc1cccc(OC(F)=Cc2ccccc2)c1 [Compound 3] | 70 | 100 | 70 |  | 93 | 15 |  | 41 |  | 
4 | COC(=O)C(=CSC)c1ccccc1COc1cccc(OC(F)=Cc2ccccc2)c1 [Compound 4] | 86 | 90 | 75 |  | 85 | 33 |  | 91 |  | 
5 | COC=C(C(=O)OC)c1ccccc1COc1cccc(OC(F)=Cc2ccccc2C)c1 [Compound 5] | 50 | 95 | 95 | 95 | 100 | 0 | 94 | 99 | 94 | 94
6 | COC=C(C(=O)OC)c1ccccc1COc1cccc(OC(F)=Cc2cccc(C)c2)c1 [Compound 6] | 86 | 100 | 65 | 91 | 98 | 41 | 100 | 100 | 96 | 96
7 | CNC(=O)C(=COC)c1ccccc1COc1cccc(OC(F)=Cc2cccc(C)c2)c1 [Compound 7] | 46 | 26 | 10 |  | 0 | 33 |  | 0 |  | 
8 | CON=C(C(=O)OC)c1ccccc1COc1cccc(OC(F)=Cc2cccc(C)c2)c1 [Compound 8] | 92 | 100 | 92 | 90 | 98 | 51 | 93 | 97 | 90 | 90
9 | COC(=O)C(=CSC)c1ccccc1COc1cccc(OC(F)=Cc2cccc(C)c2)c1 [Compound 9] | 26 | 96 | 92 |  | 88 | 33 |  | 95 |  | 
10 | COC=C(C(=O)OC)c1ccccc1COc1cccc(OC(F)=Cc2ccc(C)cc2)c1 [Compound 10] | 50 | 97 | 92 | 96 | 100 | 0 | 97 | 95 | 95 | 95
11 | CNC(=O)C(=COC)c1ccccc1COc1cccc(OC(F)=Cc2ccc(C)cc2)c1 [Compound 11] | 20 | 16 | 5 |  | 43 | 15 |  | 25 |  | 
12 | CON=C(C(=O)OC)c1ccccc1COc1cccc(OC(F)=Cc2ccc(C)cc2)c1 [Compound 12] | 84 | 100 | 80 | 97 | 93 | 27 | 96 | 94 |  | 
13 | COC=C(C(=O)OC)c1ccccc1COc1cccc(OC(F)=Cc2ccc(C)c(C)c2)c1 [Compound 13] | 85 | 97 | 50 | 95 | 98 | 58 | 99 | 100 | 97 | 97
14 | CNC(=O)C(=COC)c1ccccc1COc1cccc(OC(F)=Cc2ccc(C)c(C)c2)c1 [Compound 14] | 20 | 16 | 5 |  | 16 | 63 |  | 25 |  | 
15 | CON=C(C(=O)OC)c1ccccc1COc1cccc(OC(F)=Cc2ccc(C)c(C)c2)c1 [Compound 15] | 25 | 92 | 90 |  | 96 | 15 |  | 100 |  | 
16 | COC(=O)C(=CSC)c1ccccc1COc1cccc(OC(F)=Cc2ccc(C)c(C)c2)c1 [Compound 16] | 33 | 53 | 60 |  | 83 | 0 |  | 97 |  | 
17 | COC=C(C(=O)OC)c1ccccc1COc1cccc(OC(F)=Cc2cc(C)cc(C)c2)c1 [Compound 17] | 81 | 90 | 60 | 99 | 100 | 50 |  | 99 | 95 | 95
18 | CNC(=O)C(=COC)c1ccccc1COc1cccc(OC(F)=Cc2cc(C)cc(C)c2)c1 [Compound 18] | 6 | 26 | 5 |  | 0 | 21 |  | 0 |  | 
19 | CON=C(C(=O)OC)c1ccccc1COc1cccc(OC(F)=Cc2cc(C)cc(C)c2)c1 [Compound 19] | 33 | 100 | 90 |  | 100 | 0 |  | 98 |  | 
20 | COC(=O)C(=CSC)c1ccccc1COc1cccc(OC(F)=Cc2cc(C)cc(C)c2)c1 [Compound 20] | 46 | 73 | 35 |  | 83 | 0 |  | 93 |  | 
21 | COC=C(C(=O)OC)c1ccccc1COc1cccc(OC(F)=Cc2cc(C)c(C)cc2C)c1 [Compound 21] | 44 | 93 | 90 | 90 | 96 | 33 |  | 98 |  | 
22 | CNC(=O)C(=COC)c1ccccc1COc1cccc(OC(F)=Cc2cc(C)c(C)cc2C)c1 [Compound 22] | 25 | 0 | 26 |  | 0 | 0 |  | 0 |  | 
23 | CON=C(C(=O)OC)c1ccccc1COc1cccc(OC(F)=Cc2cc(C)c(C)cc2C)c1 [Compound 23] | 10 | 88 | 90 | 91 | 93 | 20 | 91 | 100 |  | 
24 | COC(=O)C(=CSC)c1ccccc1COc1cccc(OC(F)=Cc2cc(C)c(C)cc2C)c1 [Compound 24] | 18 | 62 | 46 |  | 98 | 27 |  | 96 |  | 
25 | COC=C(C(=O)OC)c1ccccc1COc1cccc(OC(F)=Cc2cccc(OC)c2)c1 [Compound 25] | 43 | 95 | 92 | 99 | 100 | 0 | 91 | 98 | 95 | 95
